Test results reported in US9102667B2, “N-arylaminomethylene benzothiophenones for treatment of cardiovascular disease” (FORSCHUNGSVERBUND BERLIN E.V., priority 2011, dated 2015).
pIC50: −log10 of the molar value.

Each compound was assayed against AKAP-PKA interaction (Homo sapiens, UniProt P13861) (assay: AKAP-PKA interaction (disruption) assays of Examples 1-3: alpha screen, surface plasmon resonance, ELISA (combined classification)). Details: absolute values stated in structure-activity text; method not specified; read-out: IC50.
Chain of AKAP-PKA interaction (P13861 2-404 limits assumed): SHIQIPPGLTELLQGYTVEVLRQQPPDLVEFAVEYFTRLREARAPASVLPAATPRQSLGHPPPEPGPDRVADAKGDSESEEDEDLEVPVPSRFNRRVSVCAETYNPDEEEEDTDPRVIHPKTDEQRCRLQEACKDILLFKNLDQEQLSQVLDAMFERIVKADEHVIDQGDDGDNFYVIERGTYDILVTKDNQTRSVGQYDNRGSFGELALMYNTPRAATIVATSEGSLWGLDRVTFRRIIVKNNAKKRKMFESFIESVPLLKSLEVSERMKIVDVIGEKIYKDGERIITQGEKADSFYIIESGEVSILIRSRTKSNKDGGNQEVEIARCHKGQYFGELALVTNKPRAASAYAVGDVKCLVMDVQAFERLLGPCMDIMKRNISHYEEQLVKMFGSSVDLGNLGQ
Format: binding
Procedure: The inhibition of the interaction of the alpha RII subunit of protein kinase A with AKAP18-alpha by the compounds according to the invention is determined as follows:
The experiment measures the suitability of candidate compounds for the inhibition of the interaction between AKAP and PKA. An AKAP-GST fusion construct is immobilized on glutathione donor beads and His-RII-alpha on Ni-chelate acceptor beads. To the extent that the partners interact, singlet oxygen from the donor beads becomes free and activates the fluorescence emission of the acceptor beads. The fluorescence emission determined in the microplate reader is proportional to the intensity of interaction of the protein partners. The IC50 is determined from the results of the measurement of several concentrations of one candidate compound.
The details of the process were as follows: Two protein Solutions A and B are produced in a buffer (phosphate NaCl buffer, 0.1% polysorbate 80, 0.1% [=1 mg/ml BSA]). These contain (A) the histidine-6-tagged fusion construct RII-alpha-His (3.125 nmol/l) and (B) the glutathione-S-transferase-tagged fusion construct GST-AKAP18-alpha-d2-10 (6.25 nmol/l). One volume unit each of protein solution and bead suspension are incorporated, specifically Solution A of the His6-tagged protein with Ni-chelate bead suspension and Solution B of the GST-fusion protein with glutathione beads (Perkin Elmer Product No. 6765302), and in doing so the concentrations are selected according to the manufacturers information. The Mixtures A and B obtained are incubated for one hour at room temperature (RT) in the dark.
Then, 5 μl of Mixture A is laid out for each hole on a 384-hole microtiter plate, and then to start with 0.5 μl of a solution of the candidate compound in DMSO is added and then 5 μl of Mixture B. The resulting reaction mixture is incubated 1 h at RT in the dark. Then, the reaction is tempered to 28.5° C., and the emitter intensity of the acceptor is determined in a microtiter plate reader after excitation of the donor at 680 nm.
The relative inhibition of the AKAP-PKA interaction is calculated following the formula: 1−(xc−y)/(z−y) where: X=average of readings (n=3) at concentration c; Y=average of measurement data from bead-bead check (n=6); Z=average of measurement data from protein-protein check (n=6). Results:
Surface plasmon resonance analyses for competition in solution were performed with streptavidin-coated sensor chips (GE Healthcare, Uppsala, Sweden). The N-terminal biotinylated peptide AKAP18d-L314E was used, which is a variant of the RH-binding domains of AKAP18δ (Hundsrucker et al., Biochem. J. 396, 297-306, [2006]). The binding of the regulatory subunit of the human PKAII-α or RII-β onto the peptide surface of the AKAP18δ-L314E, or the inhibition of this binding to RII by the compounds of the invention, was measured on a Biacaore 3000 machine (Biacore/GE Healthcare) as previously described (Henn et al., J Biol Chem 279, 26654-26665 [2004]). The compounds were injected for 60 sec at a flow rate of 30 μl/min, and the dissociation phase was measured for 180 sec.
Multititer plates (Corning B.V. Life Sciences, Schiphol-Rijk, Netherlands) were coated with recombinantly produced PKA RIIα (15 ng/hole) by incubation with phosphate buffer containing protease inhibitors (1 h, 22° C.). The plate was then blocked with lactoprotein.
GST-AKA7δ (Hundsrucker et al., Biochem. J. 396, 297-306, [2006]; 15 ng/well) was incubated with and without candidate compounds on the plate for 1 h at 22° C. After washing, it was incubated with antibodies (rabbit) against AKA7δ (A18δ3) and then with a peroxidase-conjugated antirabbit antibody and developed with dye substrate (LumiLight Western Blotting Substrate, Roche Diagnostics, Mannheim, Germany). Luminescence activity was determined in a microplate reader (GeniosPro, Tecan, Durham, N.C., United States) at 10 msec integration.

Question: With `O=C1/C(=C/Nc2nccs2)Sc2ccccc21` [T2/6, (2Z)-2-[(thiazole-2-ylamino)methylene]benzothiophene-3-one] as the compound, how does the pIC50 read?
Answer: Its pIC50 is ~4.10.

Question: `O=C1/C(=C/Nc2ncc[nH]2)Sc2ccccc21` [T2/1, (2Z)-2-[(1H-imidazole-2-ylamino)methylene]benzothiophene-3-one] was tested. Which pIC50 did it give?
Answer: The pIC50 was ~4.10.

Question: How did the pIC50 turn out when `O=C1/C(=C/Nc2ncc([N+](=O)[O-])s2)Sc2ccccc21` [T2/12, (2Z)-2-[[(5-nitrothiazole-2-yl)amino]methylene]benzothiophene-3-one] was run?
Answer: The pIC50 was 5.30 to 6.00.

Same assay, conditions: alkyl substituent on heteroaromatic pentacycle

Question: For `Cc1csc(N/C=C2\Sc3ccccc3C2=O)n1` [T2/10, (2Z)-2-[[(4-methylthiazole-2-yl)amino]methylene]benzothiophene-3-one], which “IC50 relative to that of the unsubstituted mother compound” value is on record?
Answer: Its value is “about 50%”.

Same assay, conditions: assays of Examples 1-3

Question: `O=C1/C(=C\Nc2cccc3ccccc23)Sc2ccccc21` [T2/39, (2e)-2-[(1-naphthylamino)methylene]benzothiophene-3-one] was tested. Which “Activity in AKAP-PKA interaction assays (in words)” value did it give?
Answer: The value was “barely detectable activity”.

Question: For `Cc1ccccc1N/C=C1/Sc2ccccc2C1=O` [T3/4, (2E)-2-[(2-methylanilino)methylene]benzothiophen-3-one], which “Activity in AKAP-PKA interaction assays (in words)” value is on record?
Answer: The value was “abolished activity”.

Same assay, conditions: class from IC50 values in assays of Examples 1, 2 or 3

Question: How did the “Activity (IC50 class)” value turn out when `COC(=O)c1cnc(N/C=C2\Sc3ccccc3C2=O)s1` [T2/17, 2-[[(z)-(3-oxobenzothiophene-2-ylidene)methyl]amino]thiazole-5-carboxylic acid methylester] was run?
Answer: Its value is 2-[[(z)-(3-oxobenzothiophene-2-ylidene)methyl]amino]thiazole-5-carboxylic acid methylester Activity: A(A).

Question: Which “Activity (IC50 class)” value does the source give for `O=C(O)c1ccc(N/C=C2\Oc3ccccc3C2=O)cc1` [T2/58, 4-[[(z)-(3-oxobenzofuran-2-ylidene)methyl]amino]benzoic acid] here?
Answer: The value was 4-[[(z)-(3-oxobenzofuran-2-ylidene)methyl]amino]benzoic acid Activity: B/C.

Question: How did the “Activity (IC50 class)” value turn out when `N=C(N)c1cnc(N/C=C2\Sc3ccccc3C2=O)s1` [T2/21, 2-[[(Z)-(3-oxobenzothiophen-2-ylidene)methyl]amino]thiazole-5-carboxamidine] was run?
Answer: Its value is 2-[[(Z)-(3-oxobenzothiophen-2-ylidene)methyl]amino]thiazole-5-carboxamidine Activity: A/B.

Same assay, conditions: class from IC50 values in assays of Examples 1, 2 or 3; read-out: Activity (IC50 class)

Question: `CNC(=O)c1cnc(N/C=C2\Sc3ccccc3C2=O)s1` [T2/20, n-methyl-2-[[(z)-(3-oxobenzothiophene-2-ylidene)methyl]amino]thiazole-5-carboxylic acid amide] was tested. Which pIC50 did it give?
Answer: Its pIC50 is > 3.60.

Question: `Cc1coc(N/C=C2\Sc3ccccc3C2=O)n1` [T2/4, (2Z)-2-[[(4-methyloxazole-2-yl)amino]methylene]benzothiophene-3-one] was tested. Which pIC50 did it give?
Answer: The pIC50 was > 4.30.

Question: `O=C1/C(=C/Nc2ncns2)Sc2ccccc21` [T2/30, (2Z)-2-[(1,2,4-thiadiazol-5-ylamino)methylene]benzothiophene-3-one] was tested. Which pIC50 did it give?
Answer: Its pIC50 is > 3.82.

Question: With `Cc1csc(N/N=C2\Sc3ccccc3C2=O)n1` [T2/51, (2Z)-2-[(4-methylthiazole-2-yl)hydrazono]benzothiophene-3-one] as the compound, how does the pIC50 read?
Answer: Its pIC50 is > 4.60.

Question: `O=C1/C(=C/Nc2nc3ccc([N+](=O)[O-])cc3s2)Sc2ccccc21` [T2/25, (2Z)-2-[[(6-nitro-1,3-benzothiazole-2-yl)amino]methylene]benzothiophene-3-one] was tested. Which pIC50 did it give?
Answer: The pIC50 was > 3.60.

Question: With `O=C1/C(=C\Nc2cccc3ccccc23)Sc2ccccc21` [T2/39, (2e)-2-[(1-naphthylamino)methylene]benzothiophene-3-one] as the compound, how does the pIC50 read?
Answer: The pIC50 was 3.12 to 3.60.

Question: How did the pIC50 turn out when `O=C1/C(=C/Nc2nc3ccccc3[nH]2)Sc2ccccc21` [T2/2, (2Z)-2-[(1H-benzimidazole-2-ylamino)methylene]benzothiophene-3-one] was run?
Answer: Its pIC50 is > 3.82.

Question: How did the pIC50 turn out when `O=C1/C(=C/Nc2ncc(Cl)s2)Sc2ccccc21` [T2/14, (2Z)-2-[[(5-chlorothiazole-2-yl)amino]methylene]benzothiophene-3-one] was run?
Answer: The pIC50 was > 3.82.

Question: `COC(=O)c1csc(N/C=C2\Sc3ccccc3C2=O)n1` [T2/18, 2-[[(z)-(3-oxobenzothiophene-2-ylidene)methyl]amino]thiazole-4-carboxylic acid methylester] was tested. Which pIC50 did it give?
Answer: Its pIC50 is > 3.82.

Question: How did the pIC50 turn out when `O=C1/C(=C/Nc2nccs2)Sc2ccccc21` [T2/6, (2Z)-2-[(thiazole-2-ylamino)methylene]benzothiophene-3-one] was run?
Answer: The pIC50 was > 3.82.

Question: `O=C1/C(=C/Nc2nc3ccccc3s2)Cc2ccccc21` [T2/55, (2e)-2-[(1,3-benzothiazole-2-ylamino)methylene]indane-1-one] was tested. Which pIC50 did it give?
Answer: Its pIC50 is > 3.60.

Question: `O=C(O)c1cnc(N/N=C2\Sc3ccccc3C2=O)s1` [T2/53, 2-[(2Z)-2-(3-oxobenzothiophene-2-ylidene)hydrazino]thiazole-5-carboxylic acid] was tested. Which pIC50 did it give?
Answer: Its pIC50 is > 4.60.

Question: `O=C1/C(=C\Nc2ccc([N+](=O)[O-])cc2)Sc2ccccc21` [T2/34, (2e)-2-[(4-nitroanilino)methylene]benzothiophene-3-one] was tested. Which pIC50 did it give?
Answer: Its pIC50 is 3.12 to 3.60.

Question: `O=C1/C(=N/Nc2ncc([N+](=O)[O-])s2)Sc2ccccc21` [T2/52, (2Z)-2-[(5-nitrothiazole-2-yl)hydrazono]benzothiophene-3-one] was tested. Which pIC50 did it give?
Answer: The pIC50 was > 4.60.

Question: `O=C1/C(=C/Nc2ncc[nH]2)Sc2ccccc21` [T2/1, (2Z)-2-[(1H-imidazole-2-ylamino)methylene]benzothiophene-3-one] was tested. Which pIC50 did it give?
Answer: The pIC50 was > 3.82.

Question: How did the pIC50 turn out when `O=C1/C(=C/Nc2ccccc2[N+](=O)[O-])Sc2ccccc21` [T2/33, (2Z)-2-[(2-nitroanilino)methylene]benzothiophene-3-one] was run?
Answer: The pIC50 was > 3.82.

Question: `O=C(O)c1ccc(N/C=C2\Cc3ccccc3C2=O)cc1` [T2/56, 4-[[(e)-(1-oxoindan-2-ylidene)methyl]amino]benzoic acid] was tested. Which pIC50 did it give?
Answer: The pIC50 was > 3.82.

Question: With `O=C1/C(=C/Nc2ccc3scnc3c2)Sc2ccccc21` [T2/29, (2Z)-2-[(1,3-benzothiazole-5-ylamino)methylene]benzothiophene-3-one] as the compound, how does the pIC50 read?
Answer: Its pIC50 is 3.12 to 3.60.

Question: `NC(=O)c1cnc(N/C=C2\Sc3ccccc3C2=O)s1` [T2/19, 2-[[(z)-(3-oxobenzothiophene-2-ylidene)methyl]amino]thiazole-5-carboxylic acid amide] was tested. Which pIC50 did it give?
Answer: Its pIC50 is > 3.82.

Question: `O=C1/C(=C/Nc2ncc(Br)s2)Sc2ccccc21` [T2/13, (2Z)-2-[[(5-bromothiazole-2-yl)amino]methylene]benzothiophene-3-one] was tested. Which pIC50 did it give?
Answer: The pIC50 was > 4.30.

Question: `COc1ccc2nc(N/C=C3\Sc4ccccc4C3=O)sc2c1` [T2/24, (2Z)-2-[[(6-methoxy-1,3-benzothiazole-2-yl)amino]methylene]benzothiophene-3-one] was tested. Which pIC50 did it give?
Answer: The pIC50 was > 3.82.

Question: `O=C1/C(=C/Nc2nc3c(F)cc(F)cc3s2)Sc2ccccc21` [T2/26, (2Z)-2-[[(4,6-difluoro-1,3-benzothiazole-2-yl)amino]methylene]benzothiophene-3-one] was tested. Which pIC50 did it give?
Answer: The pIC50 was 3.12 to 3.60.

Question: How did the pIC50 turn out when `O=C1/C(=C/Nc2nc3ccc(C(F)(F)F)cc3s2)Sc2ccccc21` [T2/27, (2Z)-2-[[[6-(trifluoromethyl)-1,3-benzothiazole-2-yl]amino]methylene]benzothiophene-3-one] was run?
Answer: The pIC50 was 3.12 to 3.60.

Question: `O=C1/C(=C/Nc2nc3ccc(Br)cc3s2)Sc2ccccc21` [T2/28, (2Z)-2-[[(6-bromo-1,3-benzothiazole-2-yl)amino]methylene]benzothiophene-3-one] was tested. Which pIC50 did it give?
Answer: The pIC50 was > 3.82.

Question: With `O=C1/C(=C/Nc2ncc3ccccc3n2)Sc2ccccc21` [T2/42, (2Z)-2-[(chinazolin-2-ylamino)methylene]benzothiophene-3-one] as the compound, how does the pIC50 read?
Answer: Its pIC50 is 3.12 to 3.60.

Question: How did the pIC50 turn out when `O=C1/C(=C/Nc2nncs2)Sc2ccccc21` [T2/31, (2Z)-2-[(1,3,4-thiadiazol-2-ylamino)methylene]benzothiophene-3-one] was run?
Answer: Its pIC50 is > 3.82.

Question: How did the pIC50 turn out when `O=C1/C(=C/Nc2cc([N+](=O)[O-])ccc2O)Sc2ccccc21` [T2/35, (2Z)-2-[(2-hydroxy-5-nitro-anilino)methylene]benzothiophene-3-one] was run?
Answer: The pIC50 was 3.12 to 3.60.

Question: `O=C1/C(=C/Nc2ncc([N+](=O)[O-])s2)Sc2ccccc21` [T2/12, (2Z)-2-[[(5-nitrothiazole-2-yl)amino]methylene]benzothiophene-3-one] was tested. Which pIC50 did it give?
Answer: The pIC50 was > 4.60.

Question: With `O=C1/C(=C/Nc2nc3cc(Cl)ccc3o2)Sc2ccccc21` [T2/5, (2Z)-2-[[(5-chloro-1,3-benzoxazole-2-yl)amino]methylene]benzothiophene-3-one] as the compound, how does the pIC50 read?
Answer: The pIC50 was 3.12 to 3.60.

Question: `O=C1/C(=C/Nc2nnc(Br)s2)Sc2ccccc21` [T2/32, (2Z)-2-[[(5-bromo-1,3,4-thiadiazol-2-yl)amino]methylene]benzothiophene-3-one] was tested. Which pIC50 did it give?
Answer: The pIC50 was > 3.82.
